SMILES strings stand for the structures.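 96-well plates; 48 h exposure; 5 concentrations. Endpoints by linear interpolation between flanking doses. Not reached: highest tested concentration assigned. TGI: concentration producing complete growth inhibition.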

The values below come from PubChem BioAssay (NCI).

Among the test systems are TK-10 renal; KM12 colon; HCT-15 colon; DU-145 prostate; HOP-62 NSCLC; T-47D breast; ACHN renal; SF-268 CNS; OVCAR-4 ovarian; A498 renal.
Assay in all cases: NCI-60 cell line screen, 48 h

With `OC(C1CCCCCCCCCC1)C(O)C1CCCCCCCCCC1` (configuration not stated), the TGI with TK-10 renal, in the assay with KM12 colon, in the assay on HCT-15 colon, in the assay on DU-145 prostate, in the assay on HOP-62 NSCLC and with T-47D breast was over 100 µM in each case. The TGI with ACHN renal, with SF-268 CNS and in the assay on OVCAR-4 ovarian was over 100 µM each time.
For the molecule `CC1(C)CN=CC(C)(OCc2ccccc2)C(=O)NC(C)(C)CN=CC(C)(OCc2ccccc2)C(=O)N1` (configuration not stated), the TGI in the assay with TK-10 renal, in the assay with KM12 colon, with HCT-15 colon, in the assay with DU-145 prostate, in the assay on A498 renal and in the assay with HOP-62 NSCLC was over 10 µM each time. Besides, the TGI with T-47D breast, in the assay with ACHN renal and in the assay with SF-268 CNS was over 10 µM each time.
For the molecule `CC(=O)OCC1OC(SC2=NC(=O)/C(=C/c3ccccc3)S2)C(OC(C)=O)C(OC(C)=O)C1OC(C)=O` (configuration not stated), the TGI is over 100 µM in the assay with KM12 colon; over 100 µM in the assay with HCT-15 colon; over 100 µM with DU-145 prostate; 81.2 µM in the assay on A498 renal; over 100 µM in the assay with HOP-62 NSCLC; over 100 µM in the assay on T-47D breast. The TGI was over 100 µM in the assay on ACHN renal, 52.3 µM in the assay with SF-268 CNS and over 100 µM in the assay with OVCAR-4 ovarian.
With `NC1=Nc2ccccc2Sc2nc3ccccc3n21`, the TGI in the assay on TK-10 renal, in the assay with KM12 colon, with HCT-15 colon, in the assay on DU-145 prostate, in the assay on HOP-62 NSCLC and with T-47D breast was over 100 µM each time. In addition, the TGI with ACHN renal, in the assay on SF-268 CNS and in the assay with OVCAR-4 ovarian was over 100 µM in each case.
For the molecule `O=C(c1ccccc1)c1c(C(F)(F)F)n([O-])c2cc(F)c(F)cc2[n+]1=O`, the TGI is 0.816 µM in the assay with TK-10 renal; 3.9 µM in the assay on KM12 colon; 8.71 µM in the assay on DU-145 prostate; 7.19 µM with A498 renal; 2.26 µM with HOP-62 NSCLC; over 36.7 µM in the assay with T-47D breast. Moreover, the TGI was 0.232 µM with ACHN renal, 2.45 µM in the assay with SF-268 CNS and over 100 µM with OVCAR-4 ovarian.
`COc1cc(S(=O)(=O)Nc2ccc(-c3csc(N4C(=O)C(C)SC4c4ccccc4)n3)cc2)ccc1Cl` (configuration not stated): the TGI is over 100 µM in the assay with KM12 colon; over 100 µM with HCT-15 colon; over 100 µM with DU-145 prostate; over 100 µM in the assay with A498 renal; 54.2 µM with T-47D breast; over 100 µM with ACHN renal. In addition, the TGI in the assay on SF-268 CNS and in the assay with OVCAR-4 ovarian was over 100 µM throughout.
Turning to `CC(C)C1=C(Cc2ccccc2)C(=O)O/C1=C\c1ccc(O)c(Cl)c1`, the TGI in the assay on TK-10 renal came to 31.8 µM; in the assay with KM12 colon it was 32 µM; in the assay on HCT-15 colon, 29.6 µM; with DU-145 prostate, 32.4 µM; in the assay with A498 renal, 31.4 µM; in the assay with HOP-62 NSCLC, 31.7 µM. The results for the TGI in the assay on ACHN renal, in the assay with SF-268 CNS and in the assay with OVCAR-4 ovarian were 28.1 µM, 30.4 µM and 27.8 µM, respectively.
`N#Cc1ccc2[nH]c3c(c2c1)CC(=O)Nc1ccccc1-3`: the TGI in the assay on TK-10 renal, in the assay on HCT-15 colon, with A498 renal, with HOP-62 NSCLC, in the assay on T-47D breast and in the assay with ACHN renal was over 100 µM each time. Further, the TGI with SF-268 CNS and with OVCAR-4 ovarian was over 100 µM each time.
Take `COc1cc2[nH]c(=O)c3cc(C)cc4c(Cl)nc(c1OC)c2c43`: the TGI was over 100 µM in the assay on TK-10 renal; over 100 µM with KM12 colon; over 100 µM in the assay with HCT-15 colon; over 100 µM in the assay with DU-145 prostate; 75.7 µM in the assay on HOP-62 NSCLC; over 100 µM with ACHN renal. The results for the TGI in the assay on SF-268 CNS and in the assay with OVCAR-4 ovarian were 84.8 µM and over 100 µM, respectively.
Take `N#Cc1ccc(C2Oc3ccc(Cl)cc3C=C2[N+](=O)[O-])cc1` (configuration not stated): the TGI in the assay with TK-10 renal stood at 3.38 µM; with KM12 colon it was 3.81 µM; in the assay with HCT-15 colon, 4.12 µM; with DU-145 prostate it was 6.07 µM; in the assay on A498 renal, 6.31 µM; in the assay on HOP-62 NSCLC, 3.8 µM. For the same molecule, the values for the TGI with ACHN renal, with SF-268 CNS and in the assay with OVCAR-4 ovarian were 3.06 µM, 4.16 µM and 3.45 µM, respectively.
As to `CCOC(=O)C1=C(c2ccccc2)C12N(Cc1ccccc1)C(=O)C2(c1ccccc1)c1ccccc1` (configuration not stated), the TGI in the assay on TK-10 renal was over 100 µM; in the assay with KM12 colon it was over 100 µM; in the assay with HCT-15 colon, over 100 µM; in the assay with DU-145 prostate, over 100 µM; with A498 renal, 90.9 µM; in the assay with HOP-62 NSCLC, over 100 µM. The TGI in the assay on T-47D breast, with ACHN renal and with SF-268 CNS was over 100 µM each time.
In the case of `CCN(CC)c1ccc2cc(C(N)=O)c(=Nc3ccc(F)cc3)oc2c1`, the TGI with TK-10 renal is 44.7 µM; in the assay on KM12 colon, over 100 µM; with HCT-15 colon, over 100 µM; in the assay with A498 renal it was over 100 µM; with HOP-62 NSCLC, over 100 µM; in the assay on T-47D breast, over 100 µM. The TGI in the assay on ACHN renal, in the assay with SF-268 CNS and in the assay with OVCAR-4 ovarian was over 100 µM throughout.
Turning to `Cc1ccc2c(=O)cc(Cc3csc4ccccc34)[nH]c2n1`, the TGI is over 100 µM in the assay with TK-10 renal; over 100 µM with KM12 colon; 55.8 µM with HCT-15 colon; over 100 µM in the assay with DU-145 prostate; over 100 µM with A498 renal; over 100 µM in the assay with HOP-62 NSCLC. The TGI is 73.2 µM in the assay with T-47D breast, over 100 µM in the assay with SF-268 CNS and 91.4 µM with OVCAR-4 ovarian.
Turning to `CCC(=O)N1C(=O)C(CC)(CC)C(=O)N1C(=O)CC`, the TGI in the assay with TK-10 renal, in the assay with KM12 colon, in the assay with HCT-15 colon, in the assay with DU-145 prostate, with HOP-62 NSCLC and with T-47D breast was over 100 µM throughout. Further, the TGI in the assay with ACHN renal, in the assay with SF-268 CNS and in the assay with OVCAR-4 ovarian was over 100 µM throughout.
In the case of `O=S1(=O)OCCCOS(=O)(=O)C1(Br)Br`, the TGI in the assay with TK-10 renal, in the assay with KM12 colon, in the assay with HCT-15 colon, in the assay on DU-145 prostate, in the assay with HOP-62 NSCLC and in the assay on T-47D breast was over 100 µM throughout. Further, the TGI in the assay with ACHN renal, with SF-268 CNS and in the assay on OVCAR-4 ovarian was over 100 µM throughout.
